Legend:
[1] = test system: Gli36ΔEGFR tumours-bearing nude mice; experiment: PET/CT in vivo biodistribution and tumour uptake in orthotopic Gli36ΔEGFR glioma model; settings: n = 3; for Bone (SUV mean) / Brain (SUV mean) / Colon (SUV mean) / Gall bladder (SUV mean) / Heart (SUV mean) / Kidney (SUV mean) / Liver (SUV mean) / Lung (SUV mean) / Muscle (SUV mean) / Salivary gland (SUV mean) / Small instestine (SUV mean): Gli36ΔEGFR female nude mice, i.v., PET/CT; for tumour-to-contralateral healthy brain ratio (tumour SUV max/contralateral SUV mean): Gli36ΔEGFR orthotopic glioma, nude mice
Experimental: Subsequently, we evaluated the uptake of [^18F]F-PSMA-617-NODA ([^18F]1) and [^18F]F-PSMA-617-RESCA ([^18F]2) in an orthotopic glioma model obtained with Gli36ΔEGFR cells in female nude mice. Gli36ΔEGFR tumours-bearing nude mice (n = 3) were injected i.v. with either [^18F]F-PSMA-617-NODA or [^18F]F-PSMA-617-RESCA (~ 3.8 MBq/mouse, ~ 50 pmol for [^18F]1 and ~ 170 pmol [^18F]2). Radiotracer uptake was assessed after 10, 60 and 120 min post injection by whole-body PET/CT acquisitions. Also in nude female mice, a rapid clearance of [^18F]1 in all organs and the same kinetic observed in NSG male mice (Additional file 1: S71A and B) were confirmed. […] It is interesting to note that the uptake of [^18F]1 in kidneys decreased over time in both models (Additional file 1: S71A and B), while the uptake of [^18F]F-PSMA-1007 in NSG model and [^18F]2 in nude female mice model increased (Additional file 1: S71C and D).
Total body biodistribution of [^18F]F-PSMA-1007, [^18F]F-PSMA-617-NODA and [^18F]F-PSMA-617-RESCA was evaluated in vivo using imaging PET/CT. [^18F]F-PSMA-617-NODA uptake was compared to that of the [^18F]F-PSMA-1007 in a PSMA positive prostate tumour xenograft model (LNCaP). [^18F]F-PSMA-617-NODA and [^18F]F-PSMA-617-RESCA uptake were also evaluated using an orthotopic glioma model (Gli36ΔEGFR).
5 × 10^5 Gli36ΔEGFR cells were injected in the right striatum of seven to eight weeks old female nude mice (Envigo RMS s.r.l., Italy) as previously described (Valtorta et al. [2021]). Ten days after mice underwent a T2-weighted Magnetic Resonance Imaging (MRI) using a 7 T small animal magnetic resonance scanner (Bruker, BioSpec 70/30 USR, Paravision 5.1, Germany) to confirm the growth of the tumour. Then, the same mice underwent in vivo biodistribution of [^18F]F-PSMA-617-NODA and [^18F]F-PSMA-617-RESCA, on successive but non-consecutive days, using PET/CT.
Mice were injected into a tail vein with 3.8 ± 0.1 MBq of [^18F]F-PSMA-1007, 4.0 ± 0.2 MBq of [^18F]F-PSMA-617-NODA ([^18F]1) and 3.8 ± 0.1 MBq of [^18F]F-PSMA-617-RESCA ([^18F]2), respectively.
Total body PET/CT acquisitions were performed using PET/CT tomographs dedicated to small animals, X-ß-CUBE (Molecubes, Gent, Belgium) after 10, 60 and 120 min from tracer injection. Each acquisition lasted 30 min and mice were maintained anesthetized (4% isoflurane in induction and 2% in maintenance in air) during acquisition.
Image quantification analysis was performed with PMOD 4.105 software (Zurich, Switzerland). Volumes of interest (VOIs) were drawn on peripheral organs (tumour, thoracic muscle, heart, liver, kidney, salivary glands, lung, small intestine, colon, bone, gall bladder) and on the healthy brain using CT images. For the glioma model, PET/CT images were co-registered to MRI images and two different VOIs were defined: (1) a control VOI covering the healthy left striatum (volume 4 mm^3) was drawn on the axial MR images, adjusted on the other imaging planes and then copied on the PET images of each mouse; (2) a second glioma-covering VOI was drawn in the tumour-affected brain hemisphere and centered on mice lesions.
For quantification, Standardized Uptake Value (SUV) was calculated according to the formula:
SUV = organ concentration activity [MBq/g]/(injected activity [MBq]/animal weight [g]).
The data were expressed as standardized-uptake-values (SUVmean and SUVmax) and as tumour-to-muscle (T/M) and tumour-to-blood (T/B) ratio in PCa model and as tumour-to-contralateral (T/Cl) ratio in glioma model.

[2] = Stability in human plasma (HPLC, radio-TLC, pellet/supernatant activity); assay type: in vitro ADME; settings: for Stability in human plasma: 37 °C, up to 4 h, HPLC and radio-TLC; for Pellet activity / Supernatant activity: ACN precipitation
Experimental: Stability in plasma was evaluated mixing aliquots of [^18F]1 or [^18F]2 solutions (10 MBq for 2 h incubation and 20 MBq for 4 h incubation samples) with 200 µL of human serum. The mixtures were incubated at 37 °C. Aliquots were taken at 2 h and 4 h. Plasma pellet was precipitated with 200 µL acetonitrile and centrifuged (13,500 rpm, 10 min). The supernatant was removed, and the activity of the supernatant solution and pellet was measured using a dose calibrator (VIK-202 Comecer). The supernatant solution was analyzed injecting in RP-HPLC (diluted 1:5 in water) and Radio-TLC as above described.

[3] = [18F]1, 2 h incubation in plasma, total activity incubated 3.6 MBq
[4] = [18F]1, 4 h incubation in plasma, total activity incubated 3.89 MBq

O=C(O)CCC(NC(=O)NC(CCCCNC(=O)C(Cc1ccc2ccccc2c1)NC(=O)C1CCC(CNC(=O)CCCN2CCN(CC(=O)O)CCN(CC(=O)O)CC2)CC1)C(=O)O)C(=O)O.[18F][Al] [[^18F]F-PSMA-617-NODA, (((S)-5-((S)-2-((1R,4S)-4-((4-(4,7-bis(carboxymethyl)-1,4,7-triazonan-1-yl)butanamido)methyl)cyclohexane-1-carboxamido)-3-(naphthalen-2-yl)propanamido)-1-carboxypentyl)carbamoyl)-L-glutamic acid [^18F] aluminium fluoride]
Bone (SUV mean) ([1]; 10 min p.i.): 0.18 ± 0.09 | Brain (SUV mean) ([1]; 10 min p.i.): 0.06 ± 0.01 | Colon (SUV mean) ([1]; 10 min p.i.): 0.37 ± 0.08 | Gall bladder (SUV mean) ([1]; 10 min p.i.): 0.33 ± 0.11 | Heart (SUV mean) ([1]; 10 min p.i.): 0.26 ± 0.05 | Kidney (SUV mean) ([1]; 10 min p.i.): 13.11 ± 1.60 | Liver (SUV mean) ([1]; 10 min p.i.): 0.22 ± 0.01 | Lung (SUV mean) ([1]; 10 min p.i.): 0.20 ± 0.04 | Muscle (SUV mean) ([1]; 10 min p.i.): 0.14 ± 0.01 | Salivary gland (SUV mean) ([1]; 10 min p.i.): 0.54 ± 0.17 | Small instestine (SUV mean) ([1]; 10 min p.i.): 0.32 ± 0.05 | Bone (SUV mean) ([1]; 60 min p.i.): 0.13 ± 0.08 | Brain (SUV mean) ([1]; 60 min p.i.): 0.03 ± 0.01 | Colon (SUV mean) ([1]; 60 min p.i.): 0.27 ± 0.13 | Gall bladder (SUV mean) ([1]; 60 min p.i.): 0.10 ± 0.03 | Heart (SUV mean) ([1]; 60 min p.i.): 0.10 ± 0.03 | Kidney (SUV mean) ([1]; 60 min p.i.): 13.32 ± 2.23 | Liver (SUV mean) ([1]; 60 min p.i.): 0.11 ± 0.01 | Lung (SUV mean) ([1]; 60 min p.i.): 0.09 ± 0.04 | Muscle (SUV mean) ([1]; 60 min p.i.): 0.07 ± 0.01 | Salivary gland (SUV mean) ([1]; 60 min p.i.): 0.24 ± 0.09 | Small instestine (SUV mean) ([1]; 60 min p.i.): 0.25 ± 0.06 | Bone (SUV mean) ([1]; 120 min p.i.): 0.12 ± 0.09 | Brain (SUV mean) ([1]; 120 min p.i.): 0.02 ± 0.01 | Colon (SUV mean) ([1]; 120 min p.i.): 0.16 ± 0.03 | Gall bladder (SUV mean) ([1]; 120 min p.i.): 0.04 ± 0.01 | Heart (SUV mean) ([1]; 120 min p.i.): 0.04 ± 0.002 | Kidney (SUV mean) ([1]; 120 min p.i.): 9.30 ± 3.60 | Liver (SUV mean) ([1]; 120 min p.i.): 0.05 ± 0.01 | Lung (SUV mean) ([1]; 120 min p.i.): 0.04 ± 0.01 | Muscle (SUV mean) ([1]; 120 min p.i.): 0.03 ± 0.01 | Salivary gland (SUV mean) ([1]; 120 min p.i.): 0.08 ± 0.04 | Small instestine (SUV mean) ([1]; 120 min p.i.): 0.15 ± 0.06 | tumour-to-contralateral healthy brain ratio (tumour SUV max/contralateral SUV mean) ([1]; 60 min p.i.): 7.75 ± 3.06 | tumour-to-contralateral healthy brain ratio (tumour SUV max/contralateral SUV mean) ([1]; 120 min p.i.): 10.92 ± 3.56 | Stability in human plasma ([2]; listed as [^18F]1): stable | Stability in human plasma ([2]; listed as [^18F]PSMA-617-NODA): no substantial release of [^18F]AlF^2+ | Pellet activity [2, 3]: 0.4 MBq | Supernatant activity [2, 3]: 3.2 MBq | Pellet activity [2, 4]: 0.45 MBq | Supernatant activity [2, 4]: 3.44 MBq | protein uptake ([2]; stability tests in human plasma): ~ 11%

From paper PMC11192711, “Automated radiosynthesis and preclinical evaluation of two new PSMA-617 derivatives radiolabelled via [^18F]AlF^2+ method” (EJNMMI Radiopharmacy and Chemistry, 2024)
